Like-named read-outs stand apart in the source and are kept apart here.
Key:
[1] = test system: Huh-7 cells; assay: Cell proliferation assay (MTT), Huh-7; format: cell-based; conditions: Homo sapiens
Method: (§1) The antibodies recognizing LC3, p62/SQSTM1, RalA, RalB, and GAPDH were purchased from Proteintech (Wuhan, China). HCC cell lines, including HepG2, Hep3B, Huh-7, and SMMC-7721, were obtained from the Chinese Center for Type Culture Collection (Wuhan, China) and cultured in DMEM (Dulbecco’s modified Eagle’s medium) with 10% FBS (fetal bovine serum) and streptomycin. Cytotoxicity assays were performed by using the MTT method as previously described.
(§2) The in vitro RalA/B bioactivity assays were performed following methods outlined in previous reports. ([Yan et al., 2016]; [Zhang et al., 2018]; [Walsh et al., 2019]; [Bum-Erdene et al., 2020]). In brief, the lysates of the test compound or vehicle-treated cells were cleared using cold centrifugation, and supernatants were collected. An RalBP1 solution was added to 96-well plates and incubated for 1–2 h, and then the plates were washed thrice using ELISA buffer. Next, cellular lysates were added, and samples were incubated overnight at 4°C. Then, ice-cold mouse anti-FLAG antibody was added, and samples were incubated for one more hour. After subsequent washing with ELISA buffer thrice, the HRP-conjugated anti-mouse antibody was added, and samples were incubated for another hour. Then, the HRP substrate was added. Antigen–antibody reactions were quenched by the addition of sulfuric acid (2 mol/L). Remaining RalA/B was detected by the OD450 values which were collected by using a plate reader. Cell proliferation assays, colony formation assays, apoptosis assays, GST pulldown, and Western blotting were used following methods outlined in our previous reports. ([Zhou et al., 2015]; [Zhang et al., 2016]; [Yang et al., 2017]; [He et al., 2019]). Autophagy levels and protein immunoblotting were used following the methods mentioned in our previous reports ([Pan et al., 2018]; [Wang et al., 2018]; [Hao et al., 2019]; [Wang et al., 2019]; [Peng et al., 2020]). Detailed experimental procedures are described in supporting materials.

[2] = molecular target: T1, RalA (Homo sapiens, UniProt P11233); assay: ELISA-based RalA activity assay (RalBP1-coated plates, lysates of compound-treated cells); format: biochemical; conditions: for remaining activity at 1 µM: 1 μM compound, % control = activity remained; for IC50: enzymatic inhibition, average of at least three independent replicates ± SD, read-out: Kinase activities (IC50, μM) RalA
T1 construct: expressed in transfected cells; host or cells: HepG2 (from b6; the methods paragraph names no cell line)
T1 sequence (P11233 1-203 limits assumed): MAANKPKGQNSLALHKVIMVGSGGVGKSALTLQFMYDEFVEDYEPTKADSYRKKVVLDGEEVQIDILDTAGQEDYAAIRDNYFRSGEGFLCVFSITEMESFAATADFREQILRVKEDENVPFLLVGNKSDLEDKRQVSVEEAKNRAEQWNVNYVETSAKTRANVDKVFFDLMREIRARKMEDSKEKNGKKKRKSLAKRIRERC
Method: as §2

[3] = molecular target: T2, RalB (Homo sapiens, UniProt P11234); assay: ELISA-based RalB activity assay (RalBP1-coated plates, lysates of compound-treated cells); format: biochemical; conditions: for remaining activity at 1 µM: 1 μM compound, % control = active (RalBP1-bound) RalB remaining; for IC50: enzymatic inhibition, average of at least three independent replicates ± SD, read-out: Kinase activities (IC50, μM) RalB
T2 construct: expressed in transfected cells; host or cells: HepG2 (from b6; the methods paragraph names no cell line)
T2 sequence (P11234 1-203 limits assumed): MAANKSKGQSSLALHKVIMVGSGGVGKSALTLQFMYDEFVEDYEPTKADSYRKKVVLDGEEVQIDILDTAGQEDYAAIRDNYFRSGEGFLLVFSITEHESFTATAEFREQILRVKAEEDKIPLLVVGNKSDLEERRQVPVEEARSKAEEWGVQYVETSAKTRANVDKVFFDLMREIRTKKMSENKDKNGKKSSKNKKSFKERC
Method: as §2

[4] = test system: Hep3B cells; assay: Cell proliferation assay (MTT), Hep3B; format: cell-based; conditions: Homo sapiens, average of at least three independent replicates ± SD, read-out: Anti-proliferative activities (IC50, μM) Hep3B
Method: as §1, §2

[5] = test system: SMMC-7721 cells; assay: Cell proliferation assay (MTT), SMMC-7721; format: cell-based; conditions: Homo sapiens, average of at least three independent replicates ± SD, read-out: Anti-proliferative activities (IC50, μM) SMMC-7721
Method: as §1, §2

[6] = test system: HepG2 cells; assay: Cell proliferation assay (MTT), HepG2; format: cell-based; conditions: Homo sapiens
Method: as §1, §2

[7] = Table 1, cell proliferation inhibition, read-out: IC50 (μM) Huh7
[8] = Table 2, average of at least three independent replicates ± SD, read-out: Anti-proliferative activities (IC50, μM) Huh-7
[9] = HepG2, Table 1, cell proliferation inhibition, read-out: IC50 (μM) HepG2
[10] = HepG2, Table 2, average of at least three independent replicates ± SD, read-out: Anti-proliferative activities (IC50, μM) HepG2

SMILES | IC50 [1, 7] | IC50 [1, 8] | remaining activity at 1 µM [2] | IC50 [2] | remaining activity at 1 µM [3] | IC50 [3] | IC50 [4] | melting point | IC50 [5] | IC50 [6, 9] | IC50 [6, 10]
Cc1ccc(S(=O)(=O)NC2=C(C#N)C(c3ccncc3)c3c(C)nn(-c4ccccc4)c3O2)cc1 (stereo not shown) [4l, N-(5-cyano-3-methyl-1-phenyl-4-(pyridin-4-yl)-1,4-dihydropyrano[2,3-c]-pyrazol-6-yl)-4-methylbenzenesulfonamide] | 9.15 ± 1.04 µM | 9.15 ± 1.04 µM | 40% | 1.24 ± 0.15 µM | 52% | 2.64 ± 0.3 µM | 4.39 ± 0.57 µM | 100.5 to 101.1 °C | 5.94 ± 0.77 µM | 9.2 ± 0.89 µM | 6.01 µM
Cc1ccc(S(=O)(=O)NC2=C(C#N)C(c3ccc(C(F)(F)F)cc3)c3c(C)nn(-c4ccccc4)c3O2)cc1 (stereo not shown) [4n, N-(5-cyano-3-methyl-1-phenyl-4-(4-(trifluoromethyl)phenyl)-1,4-dihydropyrano[2,3-c]-pyrazol-6-yl)-4-methylbenzenesulfonamide] | 9.58 ± 0.92 µM | 9.58 ± 0.92 µM | 46% | 1.81 ± 0.19 µM | 59% | 4.11 ± 0.45 µM | > 10 µM | 109.3 to 110.2 °C | > 10 µM | 8.46 ± 0.92 µM | 8.46 ± 0.92 µM
Cc1nn(-c2ccccc2)c2c1C(c1ccc(C(F)(F)F)cc1)C(C#N)=C(NS(=O)(=O)c1ccc(C(F)(F)F)cc1)O2 (stereo not shown) [4q, N-(5-cyano-3-methyl-1-phenyl-4-(4-(trifluoromethyl)phenyl)-1,4-dihydropyrano[2,3-c]-pyrazol-6-yl)-4-(trifluoromethyl)-benzenesulfonamide] | 8.42 ± 0.94 µM | 8.42 ± 0.94 µM | 37% | 1.02 ± 0.09 µM | 39% | 1.16 ± 0.19 µM | 7.76 ± 1 µM | 153.7 to 154.1 °C | > 10 µM | 8.65 ± 0.97 µM | 8.65 ± 0.97 µM
Cc1nn(-c2ccccc2)c2c1C(c1ccc(C(F)(F)F)cc1)C(C#N)=C(NS(=O)(=O)c1ccc(F)cc1F)O2 (stereo not shown) [4r, N-(5-cyano-3-methyl-1-phenyl-4-(4-(trifluoromethyl)phenyl)-1,4-dihydropyrano[2,3-c]-pyrazol-6-yl)-2,4-difluorobenzenesulfonamide] | 7.39 ± 0.85 µM | 7.39 ± 0.85 µM | 30% | 0.66 ± 0.08 µM | 43% | 1.49 ± 0.22 µM | 8.3 ± 0.66 µM | 65.8 to 66.5 °C | > 10 µM | 7.56 ± 0.92 µM | 7.56 ± 0.92 µM
Cc1nn(-c2ccccc2)c2c1C(c1ccc(C(F)(F)F)cc1)C(C#N)=C(NS(=O)(=O)c1cccs1)O2 (stereo not shown) [4o, N-(5-cyano-3-methyl-1-phenyl-4-(4-(trifluoromethyl)phenyl)-1,4-dihydropyrano[2,3-c]-pyrazol-6-yl)thiophene-2-sulfonamide] | > 10 µM | > 10 µM | 36% | 0.96 ± 0.12 µM | 47% | 1.93 ± 0.26 µM | 7.69 ± 0.84 µM | 55.9 to 56.7 °C | > 10 µM | 5.32 ± 0.61 µM | 5.32 ± 0.61 µM
